Measurements as given in PMC11729425 (ACS Pharmacology & Translational Science, 2024).

What was measured:
[1] = system: immortalized mouse C2C12 myoblasts; test: Lipid species (ceramides) in C2C12 cells, LC-MS/MS; type: cell-based
Method: (A) Schematic representation of the de novo sphingolipid synthesis pathway. (B) Chemical structures of myriocin (MYR) and ALT-007. (C) Heatmap analysis comparing the effects of treatments with the indicated concentrations of MYR and ALT-007 on lipid species in C2C12 cells. N = 3 per group. Data are shown as log2 fold change. (D) Body weight curves of mice treated with ALT-007 or vehicle (4 mg/kg/d for 10 days, in the food). (E) Mean food consumption measurement throughout the treatment. (F) Plasma levels of aspartate transaminase (AST), (G) alanine transaminase (ALT) and (H) creatine kinase (CK) after 10 days of treatment with ALT-007 at 4 mg/kg/day. (I) Ceramide levels measured in the gastrocnemius muscle after 10 days of treatment. N = 8 per group. Quantitative data are expressed as median with min to max values. *P < 0.05, **P < 0.01, ***P < 0.001. […]
ESI source conditions were used as follows: dry gas temperature, 230 °C; nebulizer, 35 psi and flow rate of 14 L min^–1; sheath gas temperature, 400 °C and flow rate of 12 L min^–1; nozzle voltage, 500 V; and capillary voltage, 4000 V. Dynamic multiple reaction monitoring was used as the acquisition mode with a total cycle time of 500 ms. […] Raw LC–MS/MS data were processed applying Agilent Quantitative Analysis software (version B.07.00, MassHunter Agilent Technologies). […]

[2] = system: GMC101 worms; test: Paralysis scoring in amyloid beta expressing GMC101 worms; type: in vivo, Caenorhabditis elegans; details: GMC101, 1 μM, day 1 of adulthood
Method: At least 100 worms per condition were manually scored for paralysis after poking. Results are representative of data obtained from at least two independent experiments. ALT-007 was administered at 1 μM and DMSO was used as a control. GMC101 animals were used and scoring was performed at day 1 of adulthood.

SMILES: COc1cc(C(=O)N2CC[C@H](NC(=O)c3ccccc3OC(F)(F)F)c3c2cnn3C(C)C)cnc1OC [ALT-007]
- potency in lowering ceramide species ([1]; C2C12 myoblasts, compared to Myriocin): superior potency compared to Myriocin
- ceramide levels in C2C12 myoblasts ([1]; concentration of 10 nM): lower ceramide levels
- paralysis induced by amyloid beta aggregation [2]: reduce paralysis
